The target in the experiment is T1, BRD4 (D1); BRD4 (BD1) (Homo sapiens, UniProt O60885).
T1 construct: first bromodomain (D1/BD1), purchased from Biogenie, Canada
The experiment can be described thus: AlphaScreen peptide displacement assay. Format: binding. For orientation: Bead proximity is the source of the signal in Alpha formats.

Structures are written as SMILES.

Broadly, the IC50 is the concentration needed to halve the response being measured. High values mean weaker potency, low ones greater potency. The compound `CCC1Oc2cc(NS(=O)(=O)c3ccccc3OC)ccc2NC1=O` (stereo not shown) [compound 5, N-(2-ethyl-3-oxo-3,4-dihydro-2H-benzo[b] [1, 4]oxazin-7-yl)-2-methoxybenzenesulfonamide] showed an IC50 of 999 nM.

The record behind these values is paper PMC6822579, “A novel benzoxazinone derivative YLT-LL-11 inhibits diffuse large B-cell lymphoma growth via inducing cell cycle arrest and apoptosis” (Bioscience Reports, 2019).
